Measured values: US11970436B2, “Pharmaceutical compositions comprising monoterpenes” (NEONC Technologies, Inc., priority 2010, dated 2024)

How the values were obtained:
cancer stem cells USC-04 = experiment: MTT cytotoxicity assay on cancer stem cells USC-04; type: cell-based; settings: Homo sapiens
Description: (§1) Verapamil is used as an inhibitor of drug efflux pump proteins such as P-glycoprotein.

glioma = experiment: Boyden matrigel chamber invasion; type: cell-based
VEGF = experiment: ELISA for VEGF secretion; type: cell-based; settings: U87 human glioma cells, POH for 48 hours
Experimental: (§2) ELISA was performed after cells were treated with POH for 48 hours.
(§3) Pyrko et al. The unfolded protein response regulator GRP78/BiP as a novel target for increasing chemosensitivity in malignant gliomas. Cancer Res 67(20):9809-16, 2007. […] In addition, it may overcome the immunosuppressive functions of transforming growth factor beta-2 (TGFβ-2) secreted by glioma cells.

interleukin 8 (IL8) = experiment: ELISA for IL-8 secretion; type: cell-based; settings: U87 human glioma cells, POH for 48 hours
Experimental: as §2, §3

U251 human glioma cells [1] = experiment: MTT cytotoxicity assay, POH combined with TMZ; type: cell-based; settings: POH and TMZ, FIG. 5C
Experimental: (§4) Cytotoxicity assays were carried out after cells were treated with POH in combination with temozolomide (TMZ), the standard alkylating agent used in the treatment of malignant gliomas. […] This effect was also seen in cell lines that were TMZ resistant.

[2] = tested on: cell lines that were TMZ resistant; experiment: Cytotoxicity assay, POH combined with TMZ, resistant lines; type: cell-based; settings: POH and TMZ
Experimental: as §4

[3] = tested on: U251, LN229 and U87 human glioma cells; experiment: MTT cytotoxicity assay, POH combined with DMC; type: cell-based; settings: MTT and colony formation assays, FIG. 5A
Description: (§5) Pyrko et al. HIV-1 protease inhibitors nelfinavir and atazanavir induce malignant glioma death by triggering endoplasmic reticulum stress. Cancer Res 67(22): 10920-10928, 2007.

U251 human glioma cells [4] = experiment: MTT cytotoxicity assay, POH combined with Nelfinavir; type: cell-based; settings: FIG. 5B
Description: as §5

glioma cells = experiment: Apoptosis / cell killing by rolipram with or without POH; type: cell-based
Experimental: When cells were treated with rolipram alone, apoptosis occurred only after 48 hours post the addition of high concentrations of rolipram (e.g., 1 mM). Synergistic cell killing by rolipram and POH occurred within a much shorter time period, i.e., 6 hours after the addition of the drugs. Chen et al. The type IV phosphodiesterase inhibitor rolipram induces expression of the cell cycle inhibitors p21 Cip 1 and p27Kip1, resulting in growth inhibition, increased differentiation, and subsequent apoptosis of malignant A-12 glioma cells. Cancer Biology & Therapy, Vol. 1:3, 268-276, 2003.

[5] = tested on: brain endothelial cells (BECs); experiment: Transepithelial electrical resistance (TEER), in vitro blood brain barrier model; type: cell-based; settings: 0.03% POH for 20 hours, compared to medium only, 0.01% and 0.02% POH
Experimental: In these experiments, brain endothelial cells (BECs) were used as an in vitro model of blood brain barrier. The increase in TEER in each group over time corresponds to increased confluency of the cells in culture. TEER decreased when cells were treated by 0.03% POH for 20 hours compared to medium only, 0.01% POH treatment, and 0.02% POH treatment.
Transepithelial electrical resistance (TEER) assays were performed assessing the ability of POH to increase paracellular permeability (FIG. 7A). In these experiments, brain endothelial cells (BECs) were used as an in vitro blood brain barrier model. […] TEER decreased when cells were treated by 0.03% POH for 20 hours compared to medium only, 0.01% POH treatment, and 0.02% POH treatment. The increase in TEER in each group over time corresponds to increased confluency of the cells in culture.

[6] = tested on: glucose-regulated protein 78 (GRP78); experiment: Western blot ER stress marker GRP78; type: cell-based, human; settings: 20 hours
Experimental: (§6) The treatments for different lanes of the Western blot are as follows: 1: No treatment; 2: 0.5 mM purified POH; 3: 1.5 mM purified POH; 4: 0.5 mM Sigma POH; 5: 1.5 mM Sigma POH; 6: 0.5 mM Wako POH; 7: 1.5 mM Wako POH; 8: Positive Control (DMC 40uM). Sigma POH is the POH purchased from Sigma Chemicals. Wako POH is the POH purchased from […]. Cells were treated with different agents or mock treated for 20 hours before being lysed.
(§7) Sigma POH is the POH purchased from Sigma Chemicals.
(§8) GRP78 is an anti-apoptotic protein the level of which is increased in response to stress. CHOP is a proapoptotic protein signaling for apoptosis. Pyrko et al. The unfolded protein response regulator GRP78/BiP as a novel target for increasing chemosensitivity in malignant gliomas. Cancer Research 67(20):9809-16, 2007.
(§9) U251 TMZ-sensitive and TMZ-resistant (U251/TR1, U251/TR2) cells were treated with Sigma POH (1.5 mM) or purified POH (1.5 mM) for 20 hours, then Western blot was performed.

[7] = tested on: CCAAT/enhancer binding protein (CHOP); experiment: Western blot apoptosis marker CHOP; type: cell-based, human; settings: 20 hours
Experimental: as §6, §7, §8, §9

[8] = tested on: glioblastoma cancer stem cell line USC-02; experiment: MTT assay on glioblastoma cancer stem cells USC-02; type: cell-based, human
Description: as §1

[9] = tested on: glioma tumor cells (U251 cells); experiment: MTT cytotoxicity assay, glioma cells versus normal brain cells; type: cell-based, human; settings: FIG. 14
Description: as §1

[10] = tested on: normal stem cells mSVZ (mouse SVZ stem cells), brain endothelial cells (BECs) and astrocytes; experiment: Comparison of POH IC50 values, normal cells; type: cell-based; settings: FIG. 18, normal cells
[11] = tested on: glioblastoma cancer stem cells (USC04); experiment: Sphere formation assay (SFA); type: cell-based, human; settings: POH 0-1.5 mM for 6 days
Experimental: USC04 cells were incubated with varying concentrations of POH (0-1.5 mM) for 6 days.

H-Ras [12] = experiment: H-ras production in glioblastoma cancer stem cells; type: cell-based, human; settings: USC-02 and USC-04, POH for 24 hours
Experimental: Two glioblastoma cancer stem cell lines (USC-02, USC-04) were treated by POH for 24 hours. USC-02 and USC-04 are two independent primary cancer stem cell lines isolated from glioblastoma tissue from two different patients.

[13] = tested on: recurrent malignant gliomas; settings: intranasal delivery, patients with recurrent malignant gliomas; cited from earlier work
[14] = oral, cited from earlier work
K-Ras = experiment: Western blot K-Ras expression; type: cell-based, human; settings: U251 glioma cells, 24 hours
Experimental: (§10) U251 glioma cells were treated with Sigma POH or purified POH for 24 hours, then Western blot was performed.

H-Ras [15] = experiment: Western blot H-Ras expression; type: cell-based, human; settings: U251 glioma cells, 24 hours
Experimental: as §10

[16] = tested on: intracranial glioma model; experiment: Intracranial glioma model in athymic nu/nu mice, survival; type: in vivo; settings: mice treated with TMZ; untreated about four weeks
Experimental: Male athymic nu/nu mice (6-8 weeks old) will be employed for this research. Rodent subcutaneous/intracranial glioma model can be established as follows. Six to eight week old athymic nu/nu mice will be anesthesized with intraperitoneal injections of ketamine (80 mg/kg) and xylazine (10 mg/kg). For the intracranial glioma model, the mice are placed into a stereotactic head frame (Harvard Apparatus), and local anesthetic (0.2 cc of 0.25% xylocaine) is injected into the right frontal scalp. A knife blade is used to make a small incision, and a drill bit is used to make a small opening in the right frontal skull at the level of the coronal suture. Glioma cells (1×10^5 cells/10 μl), for example, U-87 human glioma cells, will be loaded into a calibrated Hamilton syringe. The needle tip will be placed precisely into the right frontal lobe of the […], and cells will be slowly injected using a control push from the Hamilton syringe. After the injection is finished, the syringe and needle will be removed, and the wound closed.
Brains will be harvested, and tumor size determined. Survival curves will be constructed by following the mice until they develop neurological deficits. Our experience has been that survival is about four weeks after implantation for untreated mice, and up to 8 weeks for mice treated with TMZ.

[17] = tested on: U251, U87, LN299 and A172 human glioma cells; type: cell-based
[18] = tested on: U251 human glioma cells (temozolomide-sensitive); type: cell-based
Description: (§11) U251/TR1 and U251/TR2 refer to two temozolomide-resistant U251 cell lines.

[19] = tested on: U251 temozolomide-resistant cells (U251/TR1 and U251/TR2); type: cell-based, human
Description: as §11

[20] = tested on: U251 temozolomide-resistant cells (U251/TR1); experiment: Colony formation assay on temozolomide-resistant U251; type: cell-based, human; settings: FIG. 3C
B16-F1 melanoma cells = experiment: Colony formation assay, POH plus radiation; type: cell-based; settings: FIG. 4B
Experimental: (§12) Cells were treated with 325 μM or 650 μM POH prior to radiation at the doses of 2, 5 or 10 Grays (Gy). […] This was confirmed for another human glioma cell line (U251) and also for a melanoma cell line (B16-F1) (FIG. 4B).

[21] = tested on: U251 human malignant glioma cells; experiment: Colony formation assay, POH plus radiation; type: cell-based; settings: FIG. 4B
Experimental: as §12

human A172 glioma cells = experiment: Colony formation assay, POH plus radiation; type: cell-based; settings: 325 μM or 650 μM POH prior to radiation at 2, 5 or 10 Gy
Experimental: as §12

[22] = U251 TMZ-sensitive and TMZ-resistant (U251/TR1, U251/TR2) cells, 1.5 mM

Compound: Cc1ccc(C)c(-c2cc(C(F)(F)F)nn2-c2ccc(S(N)(=O)=O)cc2)c1 [DMC, dimethyl-celecoxib, reference compound]
- EC50 (cancer stem cells USC-04; FIG. 15B): 78 µM

Compound: C=C(C)[C@@H]1CC=C(CO)CC1 [POH, perillyl alcohol]
- glioma invasion (glioma): inhibit glioma invasion
- production of VEGF by glioma cells (VEGF): inhibited production
- production of interleukin 8 (IL8) by glioma cells (interleukin 8 (IL8)): inhibited production
- cytotoxicity in combination with temozolomide (TMZ) (U251 human glioma cells [1]): at least additive
- cytotoxicity in combination with temozolomide (TMZ) [2]: also seen
- cytotoxicity in combination with dimethyl-celecoxib (DMC) [3]: at least additive
- cytotoxicity in combination with Nelfinavir (NFV) (U251 human glioma cells [4]): at least additive
- time after addition of the drugs at which synergistic cell killing occurred (glioma cells; rolipram and POH in combination): 6 h
- TEER [5]: decreased
- level of GRP78 ([6]; U251, U87 and A172 cells): up-regulated
- level of CHOP ([7]; U251, U87 and A172 cells): up-regulated
- POH IC50 compared among cell lines ([8]; FIG. 18, USC-02 cells): most sensitive
- sensitivity of USC-02 to POH relative to U251 cells or normal stem cells (mSVZ) ([8]; MTT, 48 hrs): more sensitive
- EC50 (cancer stem cells USC-04; FIG. 15A): 300 µM
- sensitivity of U251 cells to POH relative to brain endothelial cells (BECs) and astrocytes [9]: more sensitive
- POH IC50 compared among cell lines [10]: most resistant
- number of spheres formed [11]: decreased the number of spheres
- H-ras production (H-Ras [12]): decreased H-ras production
- duration of disease remission in several patients [13]: ≤ 3 years
- patients achieving 6 month progression-free period [13]: 50%
- side effects from the treatment [13]: almost non-existent
- anti-cancer efficacy [14]: limited
- tolerability ([14]; mainly gastrointestinal side effects): generally poorly tolerated

Compound: C=C(C)[C@@H]1CC=C(CO)CC1 [Sigma POH, (S)-perillyl alcohol]
- K-Ras expression (K-Ras): decreased
- H-Ras expression (H-Ras [15]): decreased

Compound: Cn1nnc2c(C(N)=O)ncn2c1=O [TMZ, temozolomide]
- survival after implantation [16]: up to 8 weeks

Compound: C=C(C)[C@@H]1CC=C(CO)CC1 [purified POH, (S)-perillyl alcohol]
- cytotoxicity (MTT), cell killing [17]: efficacy
- cytotoxicity (MTT), cell killing [18]: effective in killing
- cytotoxicity (MTT), cell killing [19]: effective in killing
- colony formation [20]: efficacy
- cytotoxicity in combination with radiation (B16-F1 melanoma cells): synergistic cytotoxicity
- cytotoxicity in combination with radiation [21]: synergistic cytotoxicity
- cell killing in combination with radiation (human A172 glioma cells): synergistically
- expression of GRP-78 [6, 22]: increased expression
- expression of CHOP [7, 22]: increased expression

Compound: COc1ccc(C2CNC(=O)C2)cc1OC1CCCC1 (stereo not shown) [rolipram, reference compound]
- time after addition at which apoptosis occurred (glioma cells; rolipram alone, high concentrations (e.g., 1 mM)): ≥ 48 h
